Laboratory results as given in patent US8728508B2, “Hydrophilic coating and a method for the preparation thereof” (Coloplast A/S, priority 2002, dated 2014).
Converted amounts (≈) assume the structure as drawn. Where a name gives a salt, the structure may show the parent alone.

Tests used:
[1] = Vigorous finger rubbing under running water of UV cured coated polyurethane catheters (coating stable / lubricious); format: physicochemical
Protocol: The coating was applied to polyurethane catheters by dipping the catheters in the polymer solution at room temperature and withdrawing them at a speed of 21 mm/s. The catheters were dried for 30 minutes at 70° C. and then UV cured for 150 seconds at 40-50° C. The UV cured catheters were immediately rubbed vigorously between the fingers under running water in order to evaluate whether the coating was stable and lubricious. They were then stored in water for at least 72 hours, and vigorous finger rubbing under running water was repeated. The catheters were then scored “stable” and “lubricious” only if the coating was still stable and lubricious at this time.

[2] = Hansen solubility parameter, cited from earlier work; for Delta D: dispersion; for Delta H: hydrogen bonding; for Delta P: polar
[3] = cited from earlier work
[4] = 8.7% plasticiser, 5% PVP K-90, 82% ethanol, 4.35% NMP, polyurethane catheters, finger rubbing under running water after at least 72 hours storage in water
[5] = 10% triethyl citrate, 79.0% solvent, 5% NMP, 6% PVP K-90, finger rubbing after at least 72 hours storage in water

| Compound | Coating stable? [1, 4] | Delta D [2] | Delta H [2] | Delta P [2] | Solubility in water [3] [mg/mL] | Coating stable? [1, 5] | Solubility in water (g/L) [3] |
| --- | --- | --- | --- | --- | --- | --- | --- |
| CC(=O)OCC(COC(C)=O)OC(C)=O [Glycerol triacetate] | stable | 16.5 | 9.1 | 4.5 | 71 |  |  |
| C1COCO1 [1,3-dioxolane] |  |  |  |  |  | stable |  |
| OCC(O)CO [glycerol] | not stable |  |  |  |  |  |  |
| COC(=O)c1ccccc1O [Methyl salicylate] |  | 16 | 12.3 | 8 |  |  |  |
| CC1=CC(=O)CC(C)(C)C1 [Isophorone] |  | 16.6 | 7.4 | 8.2 |  |  |  |
| c1ccc2ncccc2c1 [Quinoline] |  | 19.4 | 7.6 | 7 |  |  |  |
| CC(=O)OCC(CO)OC(C)=O (stereo not shown) [Glycerol diacetate] | stable | 16.4 | 14.2 | 8.9 |  |  | Miscible |
| CCO [Ethanol] |  |  |  |  |  | stable |  |
| CCOC(=O)CC(O)(CC(=O)OCC)C(=O)OCC [Triethyl citrate] | stable |  |  |  |  |  |  |
| CN(C)C=O [dimethyl formamide] |  |  |  |  |  | stable |  |
| CC(=O)N1CCOCC1 [N-Acetyl morpholine] |  | 18.3 | 7.8 | 5.3 |  |  | Miscible |
| CC1COC(=O)O1 (stereo not shown) [Propylene carbonate] |  | 20 | 4.1 | 18 | 190 (≈ 1860 mM) |  |  |
| CS(C)(=O)=O [Dimethyl sulfone] |  | 19 | 12.3 | 19.4 |  |  | Miscible |
| CCOP(=O)(OCC)OCC [Triethyl phosphate] |  | 16.7 | 9.2 | 11.4 |  |  |  |
| CCOC(=O)CC(CC(=O)OCC)(OC(C)=O)C(=O)OCC [Acetyl triethyl citrate] | stable | 16.6 | 8.6 | 3.5 |  |  |  |
